Data published in ChEMBL document CHEMBL6103565, “Current strategies in design and synthesis of antifungals hybrid and chimeric diazine derivatives” (Bioorg Med Chem, 2025).
Converted amounts (≈) assume the structure as drawn. Each block holds one molecule with its values, some of them ahead of it.

Experiments:
Format in all cases: functional
Candida albicans [1] = assay: Antifungal activity against Candida albicans assessed as fungal growth inhibition
Aspergillus niger [2] = assay: Antifungal activity against Aspergillus niger ATCC 16404 assessed as inhibition of mycelial growth relative to control
Candida albicans [3] = assay: Antifungal activity against Candida albicans ATCC 10231 assessed as zone of inhibition incubated for 24 hrs by disc diffusion method
Candida albicans [4] = assay: Antifungal activity against Candida albicans NRRL-Y477 assessed as zone of inhibition by disc diffusion method
Candida albicans [5] = assay: Antifungal activity against Candida albicans ATCC 10231 assessed as inhibition of mycelial growth relative to control
Penicillium frequentans = assay: Antifungal activity against Penicillium frequentans ATCC 10110 assessed as reduction in fungal growth incubated ofr 48 hrs by CLSI micro-dilution method
Fusarium solani = assay: Antifungal activity against Fusarium solani ATCC 20327 assessed as reduction in fungal growth incubated ofr 48 hrs by CLSI micro-dilution method
Aspergillus flavus [6] = assay: Antifungal activity against Aspergillus flavus ATCC 20046 assessed as reduction in fungal growth incubated ofr 48 hrs by CLSI micro-dilution method
Alternaria alternata = assay: Antifungal activity against Alternaria alternata ATCC 8741 assessed as reduction in fungal growth incubated ofr 48 hrs by CLSI micro-dilution method
Penicillium chrysogenum = assay: Antifungal activity against Penicillium chrysogenum ATCC 20044 assessed as reduction in fungal growth incubated ofr 48 hrs by CLSI micro-dilution method
Candida albicans [7] = assay: Antifungal activity against Candida albicans
Microsporum audouinii = assay: Antifungal activity against Microsporum audouinii
Aspergillus fumigatus [8] = assay: Antifungal activity against Aspergillus fumigatus assessed as reduction in fungal growth
Aspergillus niger [9] = assay: Antifungal activity against Aspergillus niger MTCC 282 assessed as reduction in microbial growth after 24 hrs by broth micro-dilution method
Rhizopus microsporus = assay: Antifungal activity against Rhizopus microsporus assessed as diameter of inhibition zone
Candida albicans [10] = assay: Antifungal activity against Candida albicans assessed as diameter of inhibition zone
Candida albicans [11] = assay: Antifungal activity against azole-resistant Candida albicans ATCC 18804 assessed as reduction in fungal growth by XTT assay
Geotrichum candidum = assay: Antifungal activity against Geotrichum candidum
[12] = test system: Syncephalastrum racemosum; assay: Antifungal activity against Syncephalastrum racemosum
Candida albicans [13] = assay: Antifungal activity against Candida albicans SC5314 assessed as reduction in fungal growth incubated for 72 hrs by broth microdilution method
Aspergillus fumigatus [14] = assay: Antifungal activity against Aspergillus fumigatus RCMB 002568 assessed as diameter of zone inhibition
Candida albicans [15] = assay: Antifungal activity against Candida albicans RCMB 005036 assessed as diameter of zone inhibition
Aspergillus fumigatus [16] = assay: Antifungal activity against Aspergillus fumigatus assessed as reduction in fungal growth incubated for 72 hrs by agar well diffusion method
Candida albicans [17] = assay: Antifungal activity against Candida albicans ATCC 90028 assessed as growth inhibition incubated for 36 hrs by resazurin dye based assay
Candida albicans [18] = assay: Antifungal activity against azole-resistant Candida albicans ATCC 10231 assessed as fungal growth inhibition incubated for 24 hrs by CLSI protocol based broth microdilution method
Candida tropicalis = assay: Antifungal activity against Candida tropicalis ATCC 750 assessed as reduction in microbial growth
Candida albicans [19] = assay: Antifungal activity against Candida albicans ATCC 90028 assessed as reduction in microbial growth
Nakaseomyces glabratus = assay: Antifungal activity against Candida glabrata ATCC 90030 assessed as reduction in microbial growth
Candida albicans [20] = assay: Antifungal activity against Candida albicans assessed as zone of inhibition by disc diffusion method
Aspergillus flavus [21] = assay: Antifungal activity against Aspergillus flavus assessed as zone of inhibition by disc diffusion method
Candida albicans [22] = assay: Antifungal activity against Candida albicans assessed as reduction in fungal growth incubated for 72 hrs by agar well diffusion method

SMILES: C[C@@H]1[C@H](O)[C@@H](C)/C=C/C=C/CC/C=C/C=C/C=C/C=C/[C@H](O[C@@H]2O[C@H](C)[C@@H](O)[C@H](N)[C@@H]2O)C[C@@H]2O[C@](O)(C[C@@H](O)[C@H](O)CC[C@@H](O)C[C@@H](O)C[C@@H](O)CC(=O)O[C@H]1C)C[C@H](O)[C@H]2C(=O)O
MIC (Candida albicans [1]): 1 µg/mL (≈ 1.08 µM)
inhibition (INH) (Aspergillus niger [2]): 66%
inhibition zone (IZ) (Candida albicans [3]): 26 mm
inhibition zone (IZ) (Candida albicans [4]): 23 mm
inhibition (INH) (Candida albicans [5]): 63%

MIC (Penicillium frequentans): 0.25 µg/mL (≈ 0.229 µM)
MIC (Fusarium solani): 0.25 µg/mL (≈ 0.229 µM)
MIC (Aspergillus flavus [6]): 0.25 µg/mL (≈ 0.229 µM)
MIC (Alternaria alternata): 0.25 µg/mL (≈ 0.229 µM)
MIC (Penicillium chrysogenum): 0.25 µg/mL (≈ 0.229 µM)
SMILES: CCC(C)CC(C)CCCCCCCCC(=O)N[C@H]1C[C@@H](O)[C@@H](NCCN)NC(=O)[C@@H]2[C@@H](O)CCN2C(=O)[C@H]([C@H](O)CCN)NC(=O)[C@H]([C@H](O)[C@@H](O)c2ccc(O)cc2)NC(=O)[C@@H]2C[C@@H](O)CN2C(=O)[C@H]([C@@H](C)O)NC1=O (stereo partly drawn)

MIC (Candida albicans [1]): 1.25 µg/mL
SMILES: COC(=O)COc1cccc(OCC(=O)OC)c1C(=O)C[n+]1cc2ccccc2cn1.[Br-]

MIC (Candida albicans [7]): 0.25 µg/mL (≈ 0.571 µM)
MIC (Microsporum audouinii): 4 µg/mL (≈ 9.14 µM)
SMILES: COc1ccc(C2CC(=Nn3c(=O)cc[nH]c3=O)CC(c3ccc(OC)cc3)S2)cc1 (stereo not drawn)

MIC (Aspergillus fumigatus [8]): < 214 µg/mL
SMILES: O=C1N/C(=N/c2nn(-c3ccccc3)nc2C(=O)Nc2cnccn2)S/C1=C\c1ccccc1

MIC (Aspergillus niger [9]): 44 µM
SMILES: Clc1cnc(C2=Nc3ccccc3SC(c3cccs3)C2)cn1 (stereo not drawn)

SMILES: O=C1CCC(=O)N(CC(=O)n2c3ccccc3c3ccccc32)N1
inhibition zone (IZ) (Rhizopus microsporus): 14 mm
inhibition zone (IZ) (Candida albicans [10]): 18 mm

SMILES: COc1ccc(/N=N/c2sc(-n3[nH]c(=O)ccc3=O)nc2C)cc1
MIC (Candida albicans [11]): 0.2 µg/mL (≈ 0.582 µM)

MIC (Geotrichum candidum): 4 µg/mL (≈ 9.02 µM)
MIC (Candida albicans [7]): 5 µg/mL (≈ 11.3 µM)
MIC [12]: 5 µg/mL (≈ 11.3 µM)
SMILES: Cc1nn(-c2ccccc2)c2nc3sc(C(=O)OCC(=O)c4ccccc4)c(N)c3nc12

MIC (Aspergillus niger [9]): 19 µM
SMILES: Clc1ccc(C2CC(c3cnc(Cl)cn3)=Nc3ccccc3S2)c(Cl)c1 (stereo not drawn)

MIC (Geotrichum candidum): 5 µg/mL (≈ 14.1 µM)
MIC (Candida albicans [7]): 5 µg/mL (≈ 14.1 µM)
MIC [12]: 5 µg/mL (≈ 14.1 µM)
SMILES: CCOC(=O)c1sc2nc3c(nc2c1N)c(C)nn3-c1ccccc1

MIC (Candida albicans [13]): 0.125 µM (≈ 0.054 µg/mL)
SMILES: O=C(NNc1nc2ccccc2nc1/C=C/c1ccccc1O)Nc1cccc(Cl)c1

SMILES: COc1ccc(NC(=O)c2nn(-c3ccccc3)c(=N)c(C#N)c2C)cc1
inhibition zone (IZ) (Aspergillus fumigatus [14]): 20 mm
inhibition zone (IZ) (Candida albicans [15]): 26 mm

MIC (Aspergillus fumigatus [16]): 1.95 µg/mL (≈ 7.32 µM)
SMILES: Cc1n[nH]c2c(C#N)c(=O)n(-c3ccc(N)cc3)nc12

MIC (Penicillium frequentans): 5 µg/mL (≈ 8.52 µM)
MIC (Fusarium solani): 5 µg/mL (≈ 8.52 µM)
MIC (Aspergillus flavus [6]): 5 µg/mL (≈ 8.52 µM)
MIC (Alternaria alternata): 5 µg/mL (≈ 8.52 µM)
MIC (Penicillium chrysogenum): 5 µg/mL (≈ 8.52 µM)
SMILES: Cc1ccc(-c2ccc(=O)n(CC3=C(Cn4nc(-c5ccc(C)cc5)ccc4=O)[C@]4(C)CCCC(C)(C)C4=CC3=O)n2)cc1

MIC (Candida albicans [17]): 6.25 µg/mL (≈ 18 µM)
SMILES: O=C(Nc1ccc(F)c(F)c1)N1CCn2c(nnc2C(F)(F)F)C1

SMILES: O=c1ccc(=O)n(-c2nc(-c3cc4ccccc4oc3=O)cs2)[nH]1
MIC (Candida albicans [18]): 5.6 µg/mL (≈ 16.5 µM)

MIC (Candida tropicalis): > 1000 µg/mL
MIC (Candida albicans [19]): 750 µg/mL
MIC (Nakaseomyces glabratus): > 1000 µg/mL
SMILES: C[C@]12CC[C@H](O)CC1=CC[C@@H]1[C@@H]2CC[C@]2(C)C3=C(C[C@@H]12)C(c1ccccc1)N1C=CSC1=N3 (stereo partly drawn)

SMILES: CC(=O)N/C(=C\c1ccc(Cl)cc1)c1nc2c(=O)[nH]c(=O)n(Cc3ccccc3Cl)c2[nH]1
inhibition zone (IZ) (Candida albicans [20]): 12 mm
inhibition zone (IZ) (Aspergillus flavus [21]): 10 mm

MIC (Aspergillus fumigatus [16]): 0.9 µg/mL (≈ 3.39 µM)
MIC (Candida albicans [22]): 3.9 µg/mL (≈ 14.7 µM)
SMILES: Cc1nnc2c(C#N)c(N)n(-c3ccc(N)cc3)nc1-2
